In patent US8524712B2, “Triazinone and diazinone derivatives useful as HSP90 inhibitors” (Synta Pharmaceuticals Corp., priority 2007, dated 2013):

Assays:
[1] = test system: MV-4-11 cells; assay: IC50 of Table 2: Method 2, MV-4-11 cell survival (Cell Counting Kit-8), reported as Her2 degradation / inhibition of Hsp90; format: cell-based; details: Homo sapiens, MV4-11, 72 hours at 37° C., text calls it Her2 degradation, table title inhibition of Hsp90
Procedure: MV-4-11 cells (20,000 cells/well) were cultured in 96-well plates and maintained at 37° C. for several hours. The cells were treated with a compound of the invention or 17AAG (a positive control) at various concentrations and incubated at 37° C. for 72 hours. Cell survival was measured with Cell Counting Kit-8 (Dojindo Laboratories, Cat. #CK04).

[2] = test system: Her2; assay: Degradation of Her2 in BT-474 cells, Method 1 (Western blot); format: cell-based, human; details: 0.5 μM, overnight
Procedure: Human high-Her2 breast carcinoma BT474 (HTB-20), SK-BR-3 (HTB-30) and MCF-7 breast carcinoma (HTB-22) from American Type Culture Collection, VA, USA were grown in Dulbecco's modified Eagle's medium with 4 mM L-glutamine and antibiotics (100 IU/ml penicillin and 100 ug/ml streptomycine; GibcoBRL). To obtain exponential cell growth, cells were trypsinized, counted and seeded at a cell density of 0.5×10^6 cells/ml regularly, every 3 days. All experiments were performed on day 1 after cell passage.
BT-474 cells are treated with 0.5 μM, 2 μM, or 5 μM of 17AAG (a positive control) or 0.5 μM, 2 μM, or 5 μM of a compound of the invention overnight in DMEM medium. After treatment, each cytoplasmic sample is prepared from 1×10^6 cells by incubation of cell lysis buffer (#9803, cell Signaling Technology) on ice for 10 minutes. The resulting supernatant used as the cytosol fractions is dissolved with sample buffer for SDS-PAGE and run on a SDS-PAGE gel, blotted onto a nitrocellulose membrane by using semi-dry transfer. Non-specific binding to nitrocellulose is blocked with 5% skim milk in TBS with 0.5% Tween at room temperature for 1 hour, then probed with anti-Her2/ErB2 mAb (rabbit IgG, #2242, Cell Signaling) and anti-Tubulin (T9026, Sigma) as housekeeping control protein. […]

| Compound | IC50 [1] | degradation of Her2 [2] |
| --- | --- | --- |
| CC(C)c1cc(C2NC(=O)NC3=C2C(=O)OC3)c(O)cc1O (stereo not drawn) [Compound 3, 4-(2,4-dihydroxy-5-isopropylphenyl)-3,4-dihydrofuro[3,4-d]pyrimidine-2,5(1H,7H)-dione] | > 500 µM | – |
| COc1ccc(CN2CC(=O)NN=C2c2cc(C(C)C)c(O)cc2O)cc1 [Compound 8, 3-(2,4-dihydroxy-5-isopropylphenyl)-4-(4-methoxybenzyl)-4,5-dihydro-1,2,4-triazin-6(1H)-one] | > 50 µM | – |
| CC(C)c1cc(C2=NNC(=O)CN2c2ccc3c(ccn3C)c2)c(O)cc1O [Compound 4, 3-(2,4-dihydroxy-5-isopropylphenyl)-4-(1-methyl-1H-indol-5-yl)-4,5-dihydro-1,2,4-triazin-6(1H)-one] | > 50 µM | – |
| CCN1CC2=C(C1=O)C(c1cc(C(C)C)c(O)cc1O)NC(=O)N2 (stereo not drawn) [Compound 2, 4-(2,4-dihydroxy-5-isopropylphenyl)-6-ethyl-3,4,6,7-tetrahydro-1H-pyrrolo[3,4-d]pyrimidine-2,5-dione] | > 100 µM | – |
| CC(C)c1cc(C2=NNC(=O)CN2c2ccc(N(C)C)cc2)c(O)cc1O [Compound 7, 3-(2,4-dihydroxy-5-isopropylphenyl)-4-(4-(dimethylamino)phenyl)-4,5-dihydro-1,2,4-triazin-6(1H)-one] | > 50 µM | – |
| CC(C)c1cc(C2=NNC(=O)CN2c2ccc(N3CCOCC3)cc2)c(O)cc1O [Compound 6, 3-(2,4-dihydroxy-5-isopropylphenyl)-4-(4-morpholinophenyl)-4,5-dihydro-1,2,4-triazin-6(1H)-one] | > 50 µM | – |
| C=CCNC1=C2C[C@@H](C)C[C@H](OC)[C@H](O)[C@@H](C)/C=C(\C)[C@H](OC(N)=O)[C@@H](OC)/C=C\C=C(/C)C(=O)NC(=CC1=O)C2=O [Compound 17AAG, 17-allylamino-17-demethoxygeldanamycin] | – | partial degradation |
| CCOC(=O)C1=C(C)NC(=O)NC1c1cc(C(C)C)c(O)cc1O (stereo not drawn) [Compound 1, ethyl 4-(2,4-dihydroxy-5-isopropylphenyl)-6-methyl-2-oxo-1,2,3,4-tetrahydropyrimidine-5-carboxylate] | > 100 µM | – |
| CC(C)c1cc(C2=NNC(=O)CN2Cc2ccc3c(c2)OCO3)c(O)cc1O [Compound 5, 4-(benzo[d][1,3]dioxol-5-ylmethyl)-3-(2,4-dihydroxy-5-isopropylphenyl)-4,5-dihydro-1,2,4-triazin-6(1H)-one] | 38.4 µM | – |
